# Columns and labels:
# Format in all cases: toxicity, cell-based
# Fibroblast = assay: Incucyte cell viability with human fibroblast; settings: 10 µM, compound concentration 10 uM
# HEK-293T = assay: Incucyte cell viability with HEK293T; settings: human, 10 µM, compound concentration 10 uM
# U2OS = assay: Incucyte cell viability with U2OS; settings: human, 10 µM, compound concentration 10 uM
# [1] = 6 h, replicate number 1, timepoint 6 hours
# [2] = 6 h, replicate number 2, timepoint 6 hours
# [3] = 12 h, replicate number 1, timepoint 12 hours
# [4] = 12 h, replicate number 2, timepoint 12 hours
# [5] = 18 h, replicate number 1, timepoint 18 hours
# [6] = 18 h, replicate number 2, timepoint 18 hours
# [7] = 24 h, replicate number 1, timepoint 24 hours
# [8] = 24 h, replicate number 2, timepoint 24 hours
# [9] = 0 h, replicate number 1, timepoint 0 hours
# [10] = 0 h, replicate number 2, timepoint 0 hours
# Note: unitless GR value; below 1 slowed growth and below 0 cell loss.
smiles,measurement,setting,value
CC(=O)O[C@H]1C(=O)[C@@]2(C)[C@H]([C@H](OC(=O)c3ccccc3)[C@]3(O)C[C@H](OC(=O)[C@H](O)[C@@H](NC(=O)c4ccccc4)c4ccccc4)C(C)=C1C3(C)C)[C@]1(OC(C)=O)CO[C@@H]1C[C@@H]2O [PACLITAXEL],Growth Rate,Fibroblast; [1],-0.93
same,Growth Rate,Fibroblast; [2],-0.73
same,Growth Rate,Fibroblast; [3],-0.65
same,Growth Rate,Fibroblast; [4],-0.32
same,Growth Rate,Fibroblast; [5],-0.57
same,Growth Rate,Fibroblast; [6],0.02
same,Growth Rate,Fibroblast; [7],-0.4
same,Growth Rate,Fibroblast; [8],0.16
same,Growth Rate,HEK-293T; [1],-0.58
same,Growth Rate,HEK-293T; [2],-0.59
same,Growth Rate,HEK-293T; [3],-0.24
same,Growth Rate,HEK-293T; [4],-0.18
same,Growth Rate,HEK-293T; [5],-0.17
same,Growth Rate,HEK-293T; [6],-0.18
same,Growth Rate,HEK-293T; [7],-0.03
same,Growth Rate,HEK-293T; [8],-0.1
same,Growth Rate,U2OS; [9],-0.24
same,Growth Rate,U2OS; [10],0.29
same,Growth Rate,U2OS; [1],0.37
same,Growth Rate,U2OS; [2],-0.14
same,Growth Rate,U2OS; [3],0.12
same,Growth Rate,U2OS; [4],-0.2
same,Growth Rate,U2OS; [5],0.09
same,Growth Rate,U2OS; [6],-0.14
same,Growth Rate,U2OS; [7],0.07
same,Growth Rate,U2OS; [8],-0.09
Cc1cc(NC(=O)NCCN2CCC(O)(Cc3ccccc3)CC2)c2ccccc2n1 [PALOSURAN],Growth Rate,Fibroblast; [10],0.27
same,Growth Rate,Fibroblast; [1],-0.3
same,Growth Rate,Fibroblast; [3],0.72
same,Growth Rate,Fibroblast; [5],0.32
same,Growth Rate,Fibroblast; [7],0.22
same,Growth Rate,HEK-293T; [9],0.55
same,Growth Rate,HEK-293T; [10],-1
same,Growth Rate,HEK-293T; [1],0.95
same,Growth Rate,HEK-293T; [3],0.83
same,Growth Rate,U2OS; [9],0.34
same,Growth Rate,U2OS; [10],0.13
same,Growth Rate,U2OS; [1],0.57
same,Growth Rate,U2OS; [2],0.73
same,Growth Rate,U2OS; [3],0.33
same,Growth Rate,U2OS; [5],0.73
same,Growth Rate,U2OS; [6],0.98
same,Growth Rate,U2OS; [7],0.87
O=C(O)c1cc2ccccc2c(Cc2c(O)c(C(=O)O)cc3ccccc23)c1O [PAMOIC ACID],Growth Rate,Fibroblast; [9],-0.13
same,Growth Rate,Fibroblast; [10],0.41
same,Growth Rate,Fibroblast; [3],0.52
same,Growth Rate,Fibroblast; [5],0.93
same,Growth Rate,HEK-293T; [9],0.69
same,Growth Rate,HEK-293T; [10],0.89
same,Growth Rate,U2OS; [2],0.75
OCCN1CCN(CCCN2c3ccccc3Sc3ccc(Cl)cc32)CC1 [PERPHENAZINE],Growth Rate,Fibroblast; [1],-0.61
same,Growth Rate,Fibroblast; [2],0.55
same,Growth Rate,Fibroblast; [3],-0.48
same,Growth Rate,Fibroblast; [4],0.42
same,Growth Rate,Fibroblast; [5],-0.34
same,Growth Rate,Fibroblast; [6],0.44
same,Growth Rate,Fibroblast; [7],-0.08
same,Growth Rate,Fibroblast; [8],0.53
same,Growth Rate,HEK-293T; [1],0.12
same,Growth Rate,HEK-293T; [2],0.25
same,Growth Rate,HEK-293T; [3],0.59
same,Growth Rate,HEK-293T; [4],0.45
same,Growth Rate,HEK-293T; [5],0.76
same,Growth Rate,HEK-293T; [6],0.67
same,Growth Rate,HEK-293T; [7],0.41
same,Growth Rate,HEK-293T; [8],0.76
same,Growth Rate,U2OS; [2],0.28
same,Growth Rate,U2OS; [3],0.85
same,Growth Rate,U2OS; [4],0.55
same,Growth Rate,U2OS; [6],0.64
same,Growth Rate,U2OS; [7],1
same,Growth Rate,U2OS; [8],0.69
CC[C@@H](C)Nc1nc(C)nc2c(-c3ccc(OC)nc3C)c(C)nn12 [PEXACERFONT],Growth Rate,Fibroblast; [10],0.28
same,Growth Rate,Fibroblast; [1],-0.25
same,Growth Rate,Fibroblast; [2],-0.51
same,Growth Rate,Fibroblast; [3],-0.18
same,Growth Rate,Fibroblast; [4],0.49
same,Growth Rate,Fibroblast; [5],-0.19
same,Growth Rate,Fibroblast; [6],0.94
same,Growth Rate,Fibroblast; [7],-0.13
same,Growth Rate,Fibroblast; [8],1
same,Growth Rate,HEK-293T; [9],0.85
same,Growth Rate,HEK-293T; [10],0.62
same,Growth Rate,HEK-293T; [4],0.9
same,Growth Rate,HEK-293T; [5],0.93
same,Growth Rate,HEK-293T; [7],0.84
same,Growth Rate,U2OS; [10],-1
same,Growth Rate,U2OS; [1],1
same,Growth Rate,U2OS; [3],0.45
same,Growth Rate,U2OS; [5],0.67

# Reference: ChEMBL document CHEMBL5058564, “EUbOPEN Chemogenomics Library 2 (Incucyte)” (2022)
